According to patent US20240199587A1, “HETEROCYCLIC COMPOUNDS” (Hoffmann-La Roche Inc., priority 2021, published 2024):

Target: T1, MAGL (Homo sapiens, UniProt Q99685)
T1 sequence (Q99685 1-303): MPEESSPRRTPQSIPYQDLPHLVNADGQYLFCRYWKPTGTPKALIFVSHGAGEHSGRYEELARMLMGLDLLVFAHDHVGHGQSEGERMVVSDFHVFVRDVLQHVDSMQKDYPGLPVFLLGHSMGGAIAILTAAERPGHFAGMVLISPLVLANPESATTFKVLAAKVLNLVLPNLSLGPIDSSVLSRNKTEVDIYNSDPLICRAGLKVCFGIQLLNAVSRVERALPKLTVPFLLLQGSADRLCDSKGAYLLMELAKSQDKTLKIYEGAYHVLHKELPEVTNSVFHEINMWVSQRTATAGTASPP
Test: 2-AG assay (MAGL inhibitory activity, hydrolysis of 2-arachidonoylglycerol to arachidonic acid followed by mass spectrometry)
Format: biochemical
Details: 8 μM 2-arachidonoylglycerol, 15 min pre-incubation, 30 min incubation at RT, RapidFire MS readout
Method in brief: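 Arachidonic acid released from 8 μM 2-arachidonoylglycerol was quantified by online SPE triple-quadrupole MS (negative ESI, 303.1→259.1), normalised to d8-arachidonic acid internal standard. Reaction ran 30 min at RT after 15 min RT compound pre-incubation with […] MAGL in TRIS/EDTA/Tween-20 buffer, 2.5% DMSO.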

IC50	Compound
0.393 µM	O=C(N1CC(c2ccc(N3CC(C(F)(F)F)C3)nc2)C1)N1CC2(CC(c3ccc(C(F)(F)F)nc3)C2)C1 [Example 523, [3-[6-[3-(trifluoromethyl)azetidin-1-yl]-3-pyridyl]azetidin-1-yl]-[6-[6-(trifluoromethyl)-3-pyridyl]-2-azaspiro[3.3]heptan-2-yl]methanone]
0.0743 µM	O=C(N1CC2(CC(Cc3ccc(C(F)(F)F)nc3)C2)C1)N1CC2(CC(c3ccc(C(F)(F)F)nc3)C2)C1 [Example 524, [6-[6-(trifluoromethyl)-3-pyridyl]-2-azaspiro[3.3]heptan-2-yl]-[6-[[6-(trifluoromethyl)-3-pyridyl]methyl]-2-azaspiro[3.3]heptan-2-yl]methanone]
0.698 µM	O=C(N1CC2(CC(Oc3ccc(C(F)(F)F)nc3)C2)C1)N1CC2(CC(c3ccc(C(F)(F)F)nc3)C2)C1 [Example 525, [6-[6-(trifluoromethyl)-3-pyridyl]-2-azaspiro[3.3]heptan-2-yl]-[6-[[6-(trifluoromethyl)-3-pyridyl]oxy]-2-azaspiro[3.3]heptan-2-yl]methanone]
0.354 µM	O=C(N1CC2(CC(c3ccc(C(F)(F)F)nc3)C2)C1)N1CC2(CN(Cc3ccc(S(=O)(=O)C(F)(F)F)cc3)C2)C1 [Example 526, [6-[6-(trifluoromethyl)-3-pyridyl]-2-azaspiro[3.3]heptan-2-yl]-[6-[[4-(trifluoromethylsulfonyl)phenyl]methyl]-2,6-diazaspiro[3.3]heptan-2-yl]methanone]
0.0509 µM	O=C(N1CC(c2ccc(NCC3(C(F)(F)F)CC3)nc2)C1)N1CC2(CC(c3ccc(C(F)(F)F)nc3)C2)C1 [Example 527]
0.245 µM	O=C(N1CC(Oc2ccc(C(F)(F)F)c(C3CC3)c2)C1)N1CC2(CC(c3ccc(C(F)(F)F)nc3)C2)C1 [Example 528]
0.189 µM	CS(=O)(=O)c1cccc(CC2CC3(C2)CN(C(=O)N2CC4(CC(c5ccc(C(F)(F)F)nc5)C4)C2)C3)c1 [Example 529, [6-[(3-methylsulfonylphenyl)methyl]-2-azaspiro[3.3]heptan-2-yl]-[6-[6-(trifluoromethyl)-3-pyridyl]-2-azaspiro[3.3]heptan-2-yl]methanone]
0.35 µM	CS(=O)(=O)c1ccc(CC2CC3(C2)CN(C(=O)N2CC4(CC(c5ccc(C(F)(F)F)nc5)C4)C2)C3)cc1 [Example 530, [6-[(4-methylsulfonylphenyl)methyl]-2-azaspiro[3.3]heptan-2-yl]-[6-[6-(trifluoromethyl)-3-pyridyl]-2-azaspiro[3.3]heptan-2-yl]methanone]
1.3 µM	O=C(N1CC(NCc2ccc(C(F)(F)F)cc2Cl)C1)N1CC2(CC(c3ccc(C(F)(F)F)nc3)C2)C1 [Example 531]
0.131 µM	CS(=O)(=O)c1ccc(CC2CC3(C2)CN(C(=O)N2CC4(CC(c5ccc(C(F)(F)F)nc5)C4)C2)C3)cc1C(F)(F)F [Example 532, [6-[[4-methylsulfonyl-3-(trifluoromethyl)phenyl]methyl]-2-azaspiro[3.3]heptan-2-yl]-[6-[6-(trifluoromethyl)-3-pyridyl]-2-azaspiro[3.3]heptan-2-yl]methanone]
0.813 µM	O=C(N1CC(OCc2ccc(F)cc2Cl)C1)N1CC2(CC(c3ccc(C(F)(F)F)nc3)C2)C1 [Example 533, [3-[(2-chloro-4-fluoro-phenyl)methoxy]azetidin-1-yl]-[6-[6-(trifluoromethyl)-3-pyridyl]-2-azaspiro[3.3]heptan-2-yl]methanone]
1.76 µM	CC(C)c1ccc(N(C)c2ccc(C3CN(C(=O)N4CC5(CC(c6ccc(C(F)(F)F)nc6)C5)C4)C3)cn2)cc1 [Example 534, [3-[6-(4-isopropyl-N-methyl-anilino)-3-pyridyl]azetidin-1-yl]-[6-[6-(trifluoromethyl)-3-pyridyl]-2-azaspiro[3.3]heptan-2-yl]methanone]
0.17 µM	O=C(N1CC2(CCC(Cc3ccc(C(F)(F)F)nc3)C2)C1)N1CC2(CC(c3ccc(C(F)(F)F)nc3)C2)C1 (stereo not shown) [Example 535, [6-[6-(trifluoromethyl)-3-pyridyl]-2-azaspiro[3.3]heptan-2-yl]-[6-[[6-(trifluoromethyl)-3-pyridyl]methyl]-2-azaspiro[3.4]octan-2-yl]methanone]
0.0139 µM	N#Cc1cc(CC2CC3(C2)CN(C(=O)N2CC4(CC(c5ccc(C(F)(F)F)nc5)C4)C2)C3)ccc1C(F)(F)F [Example 536, 2-(trifluoromethyl)-5-[[2-[6-[6-(trifluoromethyl)-3-pyridyl]-2-azaspiro[3.3]heptane-2-carbonyl]-2-azaspiro[3.3]heptan-6-yl]methyl]benzonitrile]
0.0803 µM	O=C(N1CC(c2ccc(-c3ccc(Cl)cc3Cl)cn2)C1)N1CC2(CC(c3ccc(C(F)(F)F)nc3)C2)C1 [Example 537, [3-[5-(2,4-dichlorophenyl)-2-pyridyl]azetidin-1-yl]-[6-[6-(trifluoromethyl)-3-pyridyl]-2-azaspiro[3.3]heptan-2-yl]methanone]
0.381 µM	CS(=O)(=O)c1ccc(-c2ccc(C3CN(C(=O)N4CC5(CC(c6ccc(C(F)(F)F)nc6)C5)C4)C3)cn2)c(Cl)c1 [Example 538, [3-[6-(2-chloro-4-methylsulfonyl-phenyl)-3-pyridyl]azetidin-1-yl]-[6-[6-(trifluoromethyl)-3-pyridyl]-2-azaspiro[3.3]heptan-2-yl]methanone]
0.176 µM	O=C(N1CC(c2ccc(-c3ccc(Cl)cc3F)cn2)C1)N1CC2(CC(c3ccc(C(F)(F)F)nc3)C2)C1 [Example 539, [3-[5-(4-chloro-2-fluoro-phenyl)-2-pyridyl]azetidin-1-yl]-[6-[6-(trifluoromethyl)-3-pyridyl]-2-azaspiro[3.3]heptan-2-yl]methanone]
3.37 µM	CC(C)(C)c1nc(-c2ccc(C(=O)N3CC4(CC(n5cc(C#N)cn5)C4)C3)cc2)no1 [compound 21, 1-[2-[4-(5-tert-butyl-1,2,4-oxadiazol-3-yl)benzoyl]-2-azaspiro[3.3]heptan-6-yl]pyrazole-4-carbonitrile]
0.184 µM	O=C(N1CC2(CC(n3cnc(C4CC4)n3)C2)C1)C12CCC(COCC3(C(F)(F)F)CC3)(CC1)C2 [compound 161, [6-(3-cyclopropyl-1,2,4-triazol-1-yl)-2-azaspiro[3.3]heptan-2-yl]-[4-[[1-(trifluoromethyl)cyclopropyl]methoxymethyl]norbornan-1-yl]methanone]
1.44 µM	O=C(C1CC(OCC2(C(F)(F)F)CC2)C1)N1CC2(CC(n3cnc(C4CC4)n3)C2)C1 (stereo not shown) [compound 176, [6-(3-cyclopropyl-1,2,4-triazol-1-yl)-2-azaspiro[3.3]heptan-2-yl]-[3-[[1-(trifluoromethyl)cyclopropyl]methoxy]cyclobutyl]methanone]
0.00465 µM	[6-[3-(1- hydroxycyclopropyl)- 1,2,4-triazol-1-yl]-2- azaspiro[3.3]heptan-2- yl]-[6-[4- (trifluoromethyl)-2- pyridyl]methyl]-2- azaspiro[3.3]heptan-2- yl]methanone [Example 400]

Compound	IC50
N-[2-[6-[3-(1- hydroxycyclopropyl)- 1,2,4-triazol-1-yl]-2- azaspiro[3.3]heptane-2- carbonyl]-2- azaspiro[3.3]heptan-6- yl]-3- (trifluoromethyl) benzenesulfonamide [Example 401]	0.00945 µM
